Source: PMC8118497, “Facile synthesis of PEI-based crystalline templated mesoporous silica with molecular chirality for improved oral delivery of the poorly water-soluble drug” (Drug Delivery, 2021)
Read-outs that look alike come from different tables or passages of the source.

Assays:
[1] = In vitro release of NMP, USP II paddle method in 0.5% SDS solution; assay type: physicochemical; conditions: 250 mL, 37 °C, 50 rpm, 10 mg NMP
Method: The in vitro release behavior of samples was assessed by a USP II paddle method on a dissolution apparatus (ZRS-8G, Huanghai Medicament Test Instrument, China). Prewarmed medium of 0.5% (w/v) sodium dodecyl sulfate (SDS) solution (250 mL, 37 °C) was added to the dissolution cup with a stirrer rotation speed of 50 rpm. 10 mg NMP, NMP/MCM41 and NMP/PEIs@TA-CMSs samples containing 10 mg of NMP were suspended in the release medium. 5 mL of aliquots were collected and replaced by an equal volume of fresh isothermal supplement at predetermined time intervals, After filtering through a 0.22 μm membrane filter, the drug release amounts were tested by UV spectroscopy (UV-1750, Shimadzu, Japan) at 238 nm. All in vitro release studies were repeated three times.

[2] = In vivo pharmacokinetics after oral administration; set-up: species or system Sprague-Dawley rats; conditions: rats
Method: Twelve male Sprague-Dawley rats (SD rats, 180–220 g body weight) were randomly divided into three groups (n = 4): NMP group, NMP/PEIs@TA-CMS group and NMP/MCM41 group. Prior to the experiment, animals were fasted overnight with free access to water. The animals were orally administered the water suspensions of NMP, NMP/PEIs@TA-CMS and NMP/MCM4 with a drug dose of 2.5 mg. At appropriate sampling times, aliquot blood sample (about 0.6 mL) was withdrawn via the retro-orbital venous sinus, centrifuged to separate the plasma, and stored at −20 °C.
In the pretreatment procedure, 20 μL of internal standard solution (nitrendipine, 20 μg/mL) was added into 200 μL plasma sample and vortexed for 1 min. Afterwards, 100 μL NaOH (0.01 mol/L) was uniformly mixed with the system and vortexed for 1 min. The drug was extracted by 2.5 mL diethyl ether, vortexed for 5 min, and centrifugated for 12 min to separate the organic layer (2 mL). The organic layer (2 mL) was then transferred to a new tube and evaporated to dryness under a gentle stream of N2. After reconstituting with 100 μL mobile phase, the 20 μL sample was analyzed by high performance liquid chromatography (HPLC) method. The separation procedure was performed on a Kromasil ODS-2C18 column (Thermo ODS-2 Hypersil, 250 mm × 4.6 mm, […], UK) equipped with a JanuSep C18 pre-column (Liaoning, China), and the column temperature was kept at 25 °C. The UV detector was set at 240 nm. The mixture of methanol, acetonitrile and water (3:4:3, v/v/v) was selected as the optimized mobile phase with a flow rate of 1 mL/min. The NMP content was calculated according to internal standard method, and the main pharmacokinetic parameters were obtained using the software of DAS 2.0.

[3] = test system: cerebral anoxia of mice induced by NaNO2; experiment: In vivo pharmacodynamics: survival time of mice on cerebral anoxia induced by NaNO2; set-up: species or system Kunming mice; conditions: oral dose 0.5 mg NMP (middle dose); NaNO2 i.p. 90 min post administration
Method: The pharmacodynamics study was performed to further evaluating the effect of PEIs@TA-CMS on improving the oral adsorption of NMP. 36 SPF-grade Kunming mice (18–22 g body weight) were assigned into six groups, randomly (n = 6): Normal saline group, NMP group, NMP/PEIs@TA-CMS (low dose) group, NMP/PEIs@TA-CMS (middle dose) group, NMP/PEIs@TA-CMS (high dose) group and NMP/MCM41 group. Before dosing, animals were fasted overnight with free access to water. Animals in the Normal Saline group were received oral treatment of 0.5 mL normal saline, and were considered as negative control. While for NMP group which severed as positive control, 0.5 mg pure NMP was suspended in 0.5 mL normal saline and was imposed to animals. Normal saline suspensions of NMP/PEIs@TA-CMS and NMP/MCM41 containing 0.5 mg NMP were also oral administrated to mice. Meanwhile, half and twice of the dose in NMP/PEIs@TA-CMS (middle dose) group, which were respectively in doses equivalent to 0.25 mg and 1 mg NMP, were given to mice to further study the influence of dose. […] Then the clinic manifestation and survival time of mice was recorded to study the protective effect of NMP formulations on mice cerebral anoxia.

[4] = background statement, no reference given; cited from earlier work

COCCOC(=O)C1=C(C)NC(C)=C(C(=O)OC(C)C)C1c1cccc([N+](=O)[O-])c1 (stereo not drawn) [NMP, nimodipine]
drug release amount within 60 min [1]: 29.24% | drug release amount within 240 min [1]: 41.32% | half-life ([2]; male, Sprague-Dawley, rat, plasma, drug dose 2.5 mg): 10.9 ± 1.13 h | MRT inf ([2]; male, Sprague-Dawley, rat, plasma, drug dose 2.5 mg, read-out: MRT0-∞): 8.84 ± 1.73 h | Cmax ([2]; male, Sprague-Dawley, rat, plasma, drug dose 2.5 mg, read-out: maximum concentration (Cmax)): 100 ng/mL | AUC(0-inf) ([2]; male, Sprague-Dawley, rat, plasma, drug dose 2.5 mg, water suspension): 1190 ± 160 ng·h/mL | Cmax ([2]; drug dose 2.5 mg): 100 ± 20 ng/mL | Tmax ([2]; drug dose 2.5 mg): 0.5 ± 0 h | Relative bioavailability ([2]; drug dose 2.5 mg, relative to pure NMP): 100% | time of second plasma concentration peak (double peaks) ([2]; post administration, suggests enterohepatic circulation): 8 h | survival time of mice after injection of NaNO2 [3]: 14.33 min | bioavailability [4]: lower than 13%
